Results published in patent publication US7618657B2, “Active ingredients preparation and single compound purification from traditional Chinese herbal medicine Fructus Trichosanthis and uses thereof” (priority 2003, dated 2009).

Key:
[1] = tested on: K562 cells; experiment: FACS analysis of fetal hemoglobin expression in treated K562 cells; format: cell-based, human; conditions: HU 25 mg/ml, 6 days, FIG. 7
Protocol: K562 cells were cultured with hydroxyurea (HU, 25 mg/ml) and the lead compound from Trichosanthes (12.5 ng/ml) for 6 days. Then the cells were conjugated with PE labeled mouse anti human fetal hemoglobin monoclonal antibodies (Becton Dickinson) followed by FACS analysis. In brief, 1×10^6 cells were collected in a 15 ml falcon tube and centrifuged in 150 rpm for 5 min. The cell pallet was washed with PBS. Then cells were fixed by gently mixing with 1 ml PBS with 4% formaldehyde (37-40%, Merck) for 1 hr at room temperature. The fixed cells were washed once with PBS and then were resuspended in 100 μl 0.01% Triton X-100 (Merck) in PBS/0.1% BSA (Sigma). 20 μl monoclonal antibody was added in, followed by mixing thoroughly and incubating for 30 min in darkness at room temperature, with frequent gentle shaking. Finally the cells were washed with 1× PBS with 0.1% sodium azide once and kept in 4° C. until analysis.

[2] = tested on: K562 cells; experiment: TMB staining of hemoglobin positive K562 cells; format: cell-based, human; conditions: six days culture, hydroxyurea (positive control) 25.0 μg/ml
Protocol: K562 cells (ATCC) were cultured in RPMI 1640 (Gibco) supplemented with 10% fetal calf serum (FCS, Gibco) and 1% PSN (Gibco). The cultures were maintained under a humidified atmosphere with 95% air/5% CO2 at 37° C.
The hemoglobin positive K562 cells can be identified by 3,3′,5,5′-tetramethylbenzidine (TMB, Sigma) staining. In brief, 10 μl/cell suspension was pipetted out and mixed with 10 μl TMB working solution. Five minutes later, cells were scored as positive (blue) or negative (pale yellow) at 200× microscope.
Before the assay, K562 cells were scored first by TMB staining to ensure there was no selfdifferentiation (TMB positive cell percentage less than 1.0%). 100 μl/well complete RPMI 1640 was added into a 96-well plate, and 180 μl was added in the first well. 20 μl Trichosanthes extraction components was added into the first well immediately. Then 100 μl of the mixture was transferred to the next well. By such one half dilution method, serial dilutions of Trichosanthes extraction components were got.
100 μl K562 cell suspension with the density of 4×10^4 cells/ml was add into each well of the 96-well plate. […] Then the hemoglobin positive cells were recorded by TMB staining.
Dose-response effect of the lead compound from Trichosanthes was studied on K562 cells which were cultured and assayed as described in example 3. […] Then the hemoglobin positive cells were recorded by TMB staining.

Question: What does the source list for `NC(=O)NO` [Hydroxyurea, hydroxyurea]?
Answer: expression of fetal hemoglobin (FACS, PE labeled anti human fetal hemoglobin antibody) [1]: induced; TMB Positive Cell Percentage [2]: 66.7 ± 4.4%
